Measurements from US10517244B2, “Method to develop herbicide-resistant sugar beet plants” (priority 2012, dated 2019).
Like-named read-outs stand apart in the source and are kept apart here.

Legend:
[1] = test system: sugar beet plants comprising SEQ.ID.NO:3 and SEQ.ID.NO:5 on two different alleles (Line A); assay: Greenhouse trial, damage (phytotoxicity) rating after ALS inhibitor treatment, Line A; type: in vivo, Beta vulgaris L. ssp. vulgaris
Method: Mutated sugar beet plants comprising SEQ.ID.NO:3 and SEQ.ID.NO:5 (on two different alleles) according to the present invention (as described in Example 4 above, “Line A”) were treated with different ALS inhibitors in direct comparison with sugar beet plants where the tryptophan at position 569 of the encoded ALS enzyme is substituted by a leucine (“Line B”), sugar beet plants described in WO 98/02527 where the proline at position 188 of the encoded ALS enzyme is substituted by a serine (“Line C”), and traditional variety (wild-type) sugar beet plants not having a mutation at positions 569 and 188 (“Line WT”).
Several groups of seeds of the four different mentioned sugar beet plants were sown separately in the greenhouse and grew up to stage BBCH 14 for Beta vulgaris L. ssp. vulgaris (i.e. 4 leaves (the second pair) unfolded) according to the monographie “Entwicklungsstadien mono-und dikotyler Pflanzen”, 2nd edition, 2001, ed. Uwe Meier, Biologische Bundesanstalt für Land und Forstwirtschaft. Subsequently, the resulting separate groups of sugar beet plants were each individually treated with an ALS inhibitor (ALS-in) in the amounts (g/ha) indicated in Table 2.
(§1) On day 14 after application of the respective ALS inhibitor, the damage (i.e. the phytotoxicity) for each sugar beet plant was rated on a scale from 0% (i.e. no damage, no phytotoxicity) to 100% (i.e. the plants were completely killed).
Additionally, typical early phenotypes of each sugar beet plants were inspected after treatment with a mixture comprising thiencarbazone-methyl and foramsulfuron.

[2] = test system: sugar beet plants where the tryptophan at position 569 of the ALS enzyme is substituted by a leucine (Line B); assay: Greenhouse trial, damage (phytotoxicity) rating after ALS inhibitor treatment, Line B; type: in vivo, Beta vulgaris L. ssp. vulgaris; settings: day 14 after application at stage BBCH 14; scale 0% no damage to 100% completely killed; g/ha per herbicide
From the text: (§2) Uwe Meier, Biologische Bundesanstalt für Land und Forstwirtschaft. Subsequently, the resulting separate groups of sugar beet plants were each individually treated with an ALS inhibitor (ALS-in) in the amounts (g/ha) indicated in Table 2.
as §1

[3] = test system: dual mutant plant comprising SEQ.ID.NO:3 and SEQ.ID.NO:5 (NCIMB 42050); type: in vivo, sugar beet; settings: even when put in composition with organic compounds; compatible with field application
From the text: The inventors then developed a mutated sugar beet plant comprising SEQ.ID.NO:3 and SEQ.ID.NO:5 (on two different alleles). Such resulting dual mutant has been deposited under the Budapest Treaty under NCIMB 42050. A plant comprising both SEQ.ID.NO:3 and SEQ.ID.NO:5 can be generated by relying on several techniques, including, for instance, a subsequent mutagenesis step applied to the single mutant NCIMB 42051.
The inventors then compared the resistance of this dual mutant plant (a mutation in one allele at amino acid 569 and a mutation in the other allele at amino acid 188) with the single mutant (a mutation at position 569) sugar beet.

[4] = test system: traditional variety (wild-type) sugar beet plants (Line WT); assay: Greenhouse trial, damage (phytotoxicity) rating after ALS inhibitor treatment, Line WT; type: in vivo, Beta vulgaris L. ssp. vulgaris; settings: day 14 after application at stage BBCH 14; scale 0% no damage to 100% completely killed; g/ha per herbicide
From the text: as §2, §1

[5] = test system: regenerated sugar beets having the mutated SEQ.ID.NO:3 (heterozygote); type: in vivo, sugar beet; settings: Foramsulfuron 12.5 g/ha, amidosulfuron 15 g/ha, iodosulfuron 3.5 g/ha, thiencarbazone-methyl 7.5 g/ha, up to 3 applications
From the text: (§3) The inventors compared the behaviour of regenerated sugar beets having the mutated SEQ.ID.NO:3 (heterozygote for this mutation) and a wild-type (naive) sugar beet commercial variety.

[6] = test system: sugar beet plants where the proline at position 188 of the ALS enzyme is substituted by a serine (Line C); assay: Greenhouse trial, damage (phytotoxicity) rating after ALS inhibitor treatment, Line C; type: in vivo, Beta vulgaris L. ssp. vulgaris; settings: day 14 after application at stage BBCH 14; scale 0% no damage to 100% completely killed; g/ha per herbicide
From the text: as §2, §1

[7] = test system: stomatal guard cell protoplasts; assay: Protoplasts viability under mutagenesis treatment; type: cell-based, sugar beet; settings: treatment of more than 0.2% EMS
From the text: Possibly, this method further comprises the step of adding a mutagen agent to the culture of the isolated stomatal guard cell protoplasts.
Suitable mutagen agents are physical (such as UV or X-ray) exposure or exposure to chemical agents (such as Ethyl Methane Sulfonate (EMS), for instance at 0.05%, 0.1%, 0.15%, 0.2% or even at 2.5%).

[8] = test system: homozygote 569/569 mutant sugar beet; settings: WO 2012/049268; cited from earlier work
[9] = test system: sugar beet mutant with proline at position 188 of ALS substituted by a serine; settings: at the necessary dose rate; WO 98/02527 mutant; cited from earlier work
[10] = test system: wild-type (naive) sugar beet commercial variety; assay: ALS inhibitor treatment of wild-type sugar beets (Example 3); type: in vivo; settings: Foramsulfuron 12.5 g/ha, amidosulfuron 15 g/ha, iodosulfuron 3.5 g/ha, thiencarbazone-methyl 7.5 g/ha
From the text: as §3

[11] = day 14 after application at stage BBCH 14, scale 0% no damage to 100% completely killed, g/ha per herbicide

Row | Structure (SMILES) | damage (phytotoxicity) average rating, Line A ([1]; in vivo) [%] | damage (phytotoxicity) average rating, Line B [2] [%] | resistance of the dual mutant plant line to the herbicide [3] | damage (phytotoxicity) average rating, Line WT [4] [%] | resistance of the (heterozygote) mutated variety to the herbicide [5] | damage (phytotoxicity) average rating, Line C [6] [%] | damage (phytotoxicity) average rating, Line A [1, 11] [%] | protoplasts viability [7] | resistance of homozygote 569/569 mutant in field trials [8] | resistance of the (heterozygote) mutated variety to the herbicide ([5]; listed as foramsulfuron) | phytotoxicity in field trials on proline 188 serine mutant [9] | sensitivity of the wild-type (naive) plant to the herbicide [10]
1 | COc1cc(OC)nc(NC(=O)NS(=O)(=O)N(C)S(C)(=O)=O)n1 [Amidosulfuron] | 6.3 | 37.5 | good resistance | 73.1 | same level of resistance | 51.9 | – | – | – | – | – | –
2 | COc1cc(OC)nc(Oc2cccc(Oc3nc(OC)cc(OC)n3)c2C(=O)[O-])n1.[Na+] [Bisbyribac-Na] | – | 38.1 | – | 80.0 | – | 71.7 | 17.5 | – | – | – | – | –
3 | CCOS(C)(=O)=O [EMS, Ethyl Methane Sulfonate] | – | – | – | – | – | – | – | detrimentally affected | – | – | – | –
4 | COc1cc(OC)nc(NC(=O)NS(=O)(=O)c2cc(NC=O)ccc2C(=O)N(C)C)n1 [Foramsulfuron] | – | 45.6 | – | 80.0 | good resistance | 77.5 | 26.9 | – | good resistance | best resistance | some phytotoxicity | –
5 | COc1cc(OC)n2nc(S(=O)(=O)Nc3c(Cl)ccc(C)c3Cl)nc2n1 [Metosulam] | – | 40.6 | – | 79.4 | – | 69.4 | 13.1 | – | – | – | – | –
6 | COC(=O)c1csc(C)c1S(=O)(=O)NC(=O)n1nc(OC)n(C)c1=O [Thiencarbazone-methyl] | – | 35.6 | good resistance | 84.4 | about the same level of resistance as for iodosulfuron | 37.5 | 8.1 | – | – | – | – | very sensitive
